Read-outs that look alike come from different tables or passages of the source.
Test system: HEK-CMV-Luc2-Hygro cells
Assay: High-throughput genome-wide siRNA screen and validation screen for luciferase expression
Assay type: cell-based, human
Details: for per_cell / VIA: Table 3; for per_cell: per cell luciferase yield relative to negative control; for VIA: viable cell density as % of negative control; for Luciferase activity (%) / Per cell luciferase yield (%) / Viable cell number (%): Table 6, polyamine pathway gene siRNAs
Outline: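 HEK cells with CMV-driven luciferase were reverse-transfected with 0.8 pmol siRNA per well (3 per gene) via RNAiMax and grown 72 h at 37 °C. Duplicate wells read for luciferase (ONE-Glo) and viability (CellTiter-Glo). Values given as % of plate negative-control median with MAD-based z-scores; hits with ≥2 siRNAs at z>3 retested using 3 new siRNAs.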

[1] = Table 4, primary screen, 72 h, negative control = 100%

Row | Substance | Viable cell density (%) [1] | per cell luciferase yield (%) [1] | per_cell (primary screen, 72 h) | VIA (primary screen, 72 h) | further results
1 | 102 (AGAUCUUUGUCAAGGUGUATT; chemistry not given here; listed as Homo sapiens) [compound 102] | 96.256% | 153.438% | – | – | –
2 | 108 (CGGAAUCAAUGAUCCUGUATT; chemistry not given here; listed as Homo sapiens) [compound 108] | 71.395% | 212.652% | – | – | –
3 | 84 (GGCUGUACAUAGUCCUUUUTT; chemistry not given here; listed as Homo sapiens) [compound 84] | – | – | 238.5 | 66.39 | –
4 | 217 (ACAUCGUCCACUUCCAGUATT; chemistry not given here; listed as Homo sapiens) [compound 217] | – | – | – | – | Luciferase activity (%): 97.4%; Per cell luciferase yield (%): 101.1%; Viable cell number (%): 96.3%
5 | 80 (CAAUGAUUCUUACCCUCAATT; chemistry not given here; listed as Homo sapiens) [compound 80] | – | – | 257.9 | 77.17 | –
6 | 62 (AGGUCAAUGUGACUUUCCATT; chemistry not given here; listed as Homo sapiens) [compound 62] | – | – | 161.8 | 105 | –
7 | 141 (AGAGGACCCAGAUUGUCUATT; chemistry not given here; listed as Homo sapiens) [compound 141] | 97.298% | 183.386% | – | – | –
8 | 130 (GGAGGAAUCUCGAAUGCGATT; chemistry not given here; listed as Homo sapiens) [compound 130] | 96.002% | 173.284% | – | – | –
9 | 112 (GUUUCAUCUGGGUUCGCUATT; chemistry not given here; listed as Homo sapiens) [compound 112] | 62.659% | 233.649% | – | – | –
10 | 128 (CAGCAAACCUUUGACCAGATT; chemistry not given here; listed as Homo sapiens) [compound 128] | 55.405% | 277.511% | – | – | –
11 | 48 (GCAAUGCUUGCAAAACUCATT; chemistry not given here; listed as Homo sapiens) [compound 48] | – | – | 189.3 | 90.98 | –
12 | 74 (CUUCGACAGUACUUCCGGATT; chemistry not given here; listed as Homo sapiens) [compound 74] | – | – | 161.6 | 104 | –
13 | 121 (CAUUGGUUUUGAUGAGUAUTT; chemistry not given here; listed as Homo sapiens) [compound 121] | – | 226.659% | – | – | Viable cell density (%): 64.385%
14 | 104 (GGCGAAUGCUCCUGACUAATT; chemistry not given here; listed as Homo sapiens) [compound 104] | 103.888% | 156.977% | – | – | –
15 | 160 (GGACCAAGCCCUAAAGGAATT; chemistry not given here; listed as Homo sapiens) [compound 160] | 68.989% | 220.902% | – | – | –
16 | 198 (GCCUAGGAGUUAUCCUCUATT; chemistry not given here; listed as Homo sapiens) [compound 198] | 112.248% | 137.554% | – | – | –
17 | 56 (CAACGGGACUAUUAUGAUATT; chemistry not given here; listed as Homo sapiens) [compound 56] | – | – | 163.5 | 97.39 | –
18 | 148 (CAGCCUCACCAAGCACAAATT; chemistry not given here; listed as Homo sapiens) [compound 148] | 85.866% | 167.413% | – | – | –
19 | 219 (CAGAUGGAUUAUUAGCUGATT; chemistry not given here; listed as Homo sapiens) [compound 219] | – | – | – | – | Luciferase activity (%): 94.9%; Per cell luciferase yield (%): 90.0%; Viable cell number (%): 105.4%
20 | 139 (GGAGAUAUGCAAAGCAGAATT; chemistry not given here; listed as Homo sapiens) [compound 139] | 83.011% | 194.043% | – | – | –
21 | 159 (GGAGUUCUUUGAUGAGAAATT; chemistry not given here; listed as Homo sapiens) [compound 159] | 96.357% | 157.243% | – | – | –
22 | 119 (CUGCCGCAACAAUAAGAAATT; chemistry not given here; listed as Homo sapiens) [compound 119] | 82.950% | 171.198% | – | – | –
23 | 47 (GUACCUGCGGGAUUACUCATT; chemistry not given here; listed as Homo sapiens) [compound 47] | – | – | 160.7 | 90.99 | –

Row | Substance | Viable cell density (%) [1] | per cell luciferase yield (%) [1] | per_cell (primary screen, 72 h) | VIA (primary screen, 72 h) | further results
24 | 225 (GCUUGCAGUUAAUAUCAUUTT; chemistry not given here; listed as Homo sapiens) [compound 225] | – | – | – | – | Luciferase activity (%): 28.4%; Per cell luciferase yield (%): 46.7%; Viable cell number (%): 60.8%
25 | 228 (GCCCUCUGUUGGAUAUCUATT; chemistry not given here; listed as Homo sapiens) [compound 228] | – | – | – | – | Luciferase activity (%): 45.6%; Per cell luciferase yield (%): 63.2%; Viable cell number (%): 72.1%
26 | 55 (CAACGGGACUAUUAUGAUATT; chemistry not given here; listed as Homo sapiens) [compound 55] | – | – | 163.4 | 89.58 | –
27 | 213 (GGCUGAAUGUAACAGAGGATT; chemistry not given here; listed as Homo sapiens) [compound 213] | – | – | – | – | Luciferase activity (%): 127.6%; Per cell luciferase yield (%): 134.5%; Viable cell number (%): 94.9%
28 | 61 (GGACGGAAGCGAAAAUCGATT; chemistry not given here; listed as Homo sapiens) [compound 61] | – | – | 216.2 | 71.47 | –
29 | 123 (GGUGUAAUAAUGUCCUUUATT; chemistry not given here; listed as Homo sapiens) [compound 123] | 79.386% | 188.094% | – | – | –
30 | 77 (CAAUGGAACAAUCAAAGUUTT; chemistry not given here; listed as Homo sapiens) [compound 77] | – | – | 180.8 | 89.61 | –
31 | 226 (CACUCGCAGUUAAUAUCAUTT; chemistry not given here; listed as Homo sapiens) [compound 226] | – | – | – | – | Luciferase activity (%): 25.2%; Per cell luciferase yield (%): 39.0%; Viable cell number (%): 64.6%
32 | 155 (GCCUUGCUCCGAACCUUCATT; chemistry not given here; listed as Homo sapiens) [compound 155] | 94.839% | 169.972% | – | – | Luciferase activity (%): 161.1%; Per cell luciferase yield (%): 169.9%; Viable cell number (%): 94.8%
33 | 214 (CCGUAGACUCGCUCAUCUCTT; chemistry not given here; listed as Homo sapiens) [compound 214] | – | – | – | – | Luciferase activity (%): 174.4%; Per cell luciferase yield (%): 204.2%; Viable cell number (%): 85.4%
34 | 133 (GAACUUCAAUGGAAAACAUTT; chemistry not given here; listed as Homo sapiens) [compound 133] | 63.577% | 250.367% | – | – | –
35 | 172 (GGAUAUUGGAGGCUAGUCATT; chemistry not given here; listed as Homo sapiens) [compound 172] | 289.677% | 157.868% | – | – | –
36 | 52 (GGAAGAACGUCUUGCACAATT; chemistry not given here; listed as Homo sapiens) [compound 52] | – | – | 183.1 | 85.47 | –
37 | 57 (GAACGAGUACAGCAAUAUATT; chemistry not given here; listed as Homo sapiens) [compound 57] | – | – | 140.9 | 108.2 | –
38 | 67 (GGAUGACGAGCUGAACUUUTT; chemistry not given here; listed as Homo sapiens) [compound 67] | – | – | 140.1 | 113.4 | –
39 | 209 (GAACUUCACAAGUUCCUCATT; chemistry not given here; listed as Homo sapiens) [compound 209] | 84.418% | 228.634% | – | – | –
40 | 178 (AAAUGCAACCCAAAAAGUATT; chemistry not given here; listed as Homo sapiens) [compound 178] | 76.280% | 200.322% | – | – | –
41 | 97 (GAUGAAGAAUGAUAAGUCATT; chemistry not given here; listed as Homo sapiens) [compound 97] | 96.599% | 184.201% | – | – | –
42 | 129 (GCUAUUUCCAGCGAAUAUATT; chemistry not given here; listed as Homo sapiens) [compound 129] | 81.492% | 244.722% | – | – | –
43 | 53 (GAACAAAAUAGACCUCUUATT; chemistry not given here; listed as Homo sapiens) [compound 53] | – | – | 162.7 | 101.9 | –
44 | 211 (GGAUUACAGAAACUCCUAUTT; chemistry not given here; listed as Homo sapiens) [compound 211] | 82.634% | 188.258% | – | – | –
45 | 137 (GAACCGUCGCUACAAGACATT; chemistry not given here; listed as Homo sapiens) [compound 137] | 88.616% | 212.905% | – | – | –

From patent publication US20160319277A1, “METHODS OF IMPROVED PROTEIN PRODUCTION USING MIRNAs AND SIRNAs” (THE JOHNS HOPKINS UNIVERSITY, priority 2015, published 2016)
